Like-named read-outs stand apart in the source and are kept apart here.
Experiments:
CYP1A2 = molecular target: T1, CYP1A2 (Homo sapiens, UniProt P05177); test: HLM-LC-MS CYP450 inhibition assay, CYP1A2; assay type: in vitro ADME
T1 sequence (P05177 1-516): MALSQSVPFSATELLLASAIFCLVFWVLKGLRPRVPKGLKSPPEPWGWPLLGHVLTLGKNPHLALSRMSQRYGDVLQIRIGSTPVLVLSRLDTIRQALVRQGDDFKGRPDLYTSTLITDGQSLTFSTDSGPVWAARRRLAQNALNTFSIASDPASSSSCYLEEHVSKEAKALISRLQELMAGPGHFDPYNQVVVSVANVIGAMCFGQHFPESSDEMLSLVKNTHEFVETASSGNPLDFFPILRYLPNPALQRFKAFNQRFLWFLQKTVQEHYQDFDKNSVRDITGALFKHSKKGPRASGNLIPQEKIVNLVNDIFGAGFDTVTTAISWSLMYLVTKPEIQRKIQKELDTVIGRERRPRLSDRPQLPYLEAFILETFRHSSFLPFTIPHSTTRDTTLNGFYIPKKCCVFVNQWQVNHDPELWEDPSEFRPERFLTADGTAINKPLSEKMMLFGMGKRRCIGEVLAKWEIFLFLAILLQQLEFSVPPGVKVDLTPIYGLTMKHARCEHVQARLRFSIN

CYP2C8 = molecular target: T2, CYP2C8 (Homo sapiens, UniProt P10632); test: HLM-LC-MS CYP450 inhibition assay, CYP2C8; assay type: in vitro ADME
T2 construct: from tissue; host or cells: human liver microsomes
T2 sequence (P10632 1-490): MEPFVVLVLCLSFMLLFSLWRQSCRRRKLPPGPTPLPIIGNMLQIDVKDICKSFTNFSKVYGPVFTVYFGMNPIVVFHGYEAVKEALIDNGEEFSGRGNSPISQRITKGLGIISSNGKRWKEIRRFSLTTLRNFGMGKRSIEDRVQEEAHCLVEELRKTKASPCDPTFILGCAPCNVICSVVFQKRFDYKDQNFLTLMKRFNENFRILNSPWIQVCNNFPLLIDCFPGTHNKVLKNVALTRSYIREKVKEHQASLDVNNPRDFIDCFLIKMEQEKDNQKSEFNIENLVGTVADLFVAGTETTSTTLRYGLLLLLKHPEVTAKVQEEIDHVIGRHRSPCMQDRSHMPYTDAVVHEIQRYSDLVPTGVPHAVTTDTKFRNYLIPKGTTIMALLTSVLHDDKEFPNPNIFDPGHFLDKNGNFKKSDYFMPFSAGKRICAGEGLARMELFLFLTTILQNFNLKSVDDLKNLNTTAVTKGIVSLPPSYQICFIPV
Description: (§4) A sigmoid-shaped curve (Log(inhibitor) vs. Response-Variable slope) was fitted to the data and the IC50 was calculated using GraphPad Prism software.
(§5) This assay used a cocktail of drug-probe substrates that are specific to each isozyme with HLM and LC-MS detection[33][34]. Each test article and reference inhibitor was dissolved in 40% DMSO and 60% acetonitrile (ACN) mixture. […] Substrates were then added to their respective well containing the compound/HLM solution to start the reaction. […] The solution was centrifuged at 4 °C for 30 min at 3,700 rpm and the supernatant was transferred for LC-MS analysis. The concentrations of the metabolites were determined from standard curves using commercially available metabolite standards. Compounds were tested in triplicate. The half maximal inhibitory concentration (IC50) values were determined by plotting the metabolite formation over the logarithm of the compound concentration using Prism 5.0 software (GraphPad Software Inc., San Diego, CA).

CYP2C9 = molecular target: T3, CYP2C9 (Homo sapiens, UniProt P11712); test: HLM-LC-MS CYP450 inhibition assay, CYP2C9; assay type: in vitro ADME
T3 construct: from tissue; host or cells: human liver microsomes
T3 sequence (P11712 whole entry): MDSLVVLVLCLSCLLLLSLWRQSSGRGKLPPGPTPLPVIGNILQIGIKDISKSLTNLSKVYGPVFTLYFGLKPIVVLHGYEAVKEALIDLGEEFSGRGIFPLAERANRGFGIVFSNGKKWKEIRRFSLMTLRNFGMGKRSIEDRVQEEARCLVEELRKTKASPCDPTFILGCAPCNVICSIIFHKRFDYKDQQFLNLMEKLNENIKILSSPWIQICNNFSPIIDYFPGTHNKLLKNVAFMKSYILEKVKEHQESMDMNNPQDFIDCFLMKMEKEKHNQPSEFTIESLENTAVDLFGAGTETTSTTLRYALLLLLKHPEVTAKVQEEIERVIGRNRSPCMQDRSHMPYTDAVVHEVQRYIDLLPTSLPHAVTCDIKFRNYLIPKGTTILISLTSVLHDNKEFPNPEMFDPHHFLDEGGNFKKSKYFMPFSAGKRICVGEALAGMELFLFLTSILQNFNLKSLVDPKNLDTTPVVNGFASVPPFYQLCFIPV
Description: as §4, §5

CYP2C19 = molecular target: T4, CYP2C19 (Homo sapiens, UniProt P33261); test: HLM-LC-MS CYP450 inhibition assay, CYP2C19; assay type: in vitro ADME
T4 construct: from tissue; host or cells: human liver microsomes
T4 sequence (P33261 whole entry): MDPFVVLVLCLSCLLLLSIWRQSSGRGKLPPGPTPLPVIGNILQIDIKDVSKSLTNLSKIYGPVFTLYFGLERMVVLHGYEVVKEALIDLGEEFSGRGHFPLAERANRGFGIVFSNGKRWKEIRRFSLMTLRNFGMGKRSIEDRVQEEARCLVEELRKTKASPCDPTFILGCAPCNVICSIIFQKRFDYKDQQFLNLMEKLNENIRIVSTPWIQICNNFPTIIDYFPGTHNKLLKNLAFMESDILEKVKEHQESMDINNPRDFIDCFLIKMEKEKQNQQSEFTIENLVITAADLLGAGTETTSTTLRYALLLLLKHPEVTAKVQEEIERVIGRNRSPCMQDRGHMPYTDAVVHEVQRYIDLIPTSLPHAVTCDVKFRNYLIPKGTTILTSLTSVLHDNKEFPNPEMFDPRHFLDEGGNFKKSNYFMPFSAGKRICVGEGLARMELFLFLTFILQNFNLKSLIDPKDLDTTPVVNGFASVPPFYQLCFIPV
Description: Compounds were tested in triplicate.

CYP3A4 = molecular target: T5, CYP3A4 (Homo sapiens, UniProt P08684); test: HLM-LC-MS CYP450 inhibition assay, CYP3A4; assay type: in vitro ADME
T5 construct: from tissue; host or cells: human liver microsomes
T5 sequence (P08684 whole entry): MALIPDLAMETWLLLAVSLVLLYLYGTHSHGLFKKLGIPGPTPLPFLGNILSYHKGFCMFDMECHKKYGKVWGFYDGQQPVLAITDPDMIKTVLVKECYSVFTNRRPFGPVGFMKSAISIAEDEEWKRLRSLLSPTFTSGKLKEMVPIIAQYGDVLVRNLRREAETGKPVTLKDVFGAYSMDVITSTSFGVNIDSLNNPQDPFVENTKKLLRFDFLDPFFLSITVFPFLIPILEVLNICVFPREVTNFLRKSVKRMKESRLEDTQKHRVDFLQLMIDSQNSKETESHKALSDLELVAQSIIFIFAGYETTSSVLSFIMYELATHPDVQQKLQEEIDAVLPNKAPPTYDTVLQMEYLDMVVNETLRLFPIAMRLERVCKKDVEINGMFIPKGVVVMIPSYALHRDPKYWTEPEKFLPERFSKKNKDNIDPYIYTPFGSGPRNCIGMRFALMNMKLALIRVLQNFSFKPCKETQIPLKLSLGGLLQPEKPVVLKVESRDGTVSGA
Description: as §4, §5

[1] = Determination of maximum tolerated dose (MTD) in mice; assay type: in vivo; details: mouse, in vivo
Description: (§1) The MTD determination assay was composed of sighting study and main study. For the sighting study of the determination maximum tolerable dose (MTD) of NSC23925b, one of each animal (one female rat, one male rat, one female mouse, and one male mouse) was used at each I.V. and I.P. injection dose level. The starting dose was selected from the fixed dose levels (5, 50, 500, 2000 mg/kg) as a dose expected to produce evident toxicity. The first animal was dosed and observed. Time of appearance, degree, and lasting/recovery time of signs were recorded in details. Afterwards, animals were observed twice on the dosing day and then changed to daily observation. The observation lasted at least 14 days. If the first animal died or appeared impaired, the second animal received a middle dose of the two doses and vice versa. The sighting study was completed when a decision on the starting dose for the main study was made.
(§2) During the main study, a total of five animals of one sex were used for each dose level investigated. The five animals were made up of one animal from the sighting study dosed at the selected dose level together with an additional four animals. Each group received one of the fixed doses by I.V. and I.P. based on the sighting study. If the first animal died or appeared impaired, the second animal received a middle dose of the two doses and vice versa.
(§3) Animals were fasted overnight prior to dosing. Following the period of fasting, the animals were weighed and the dose was calculated according to the body weight. After the animals were administrated a dose volume of 10 mL/kg, food was withheld for another 3–4 hours. Individual weights of animals were determined shortly before the test substance was administered and twice weekly thereafter. Weight changes were calculated and recorded. Animals injected with saline were the control group for the weight alteration.

BALB/c mice = test: as above; assay type: in vivo; details: mice, 5 exposed
Description: as §1, §2, §3

[2] = male, Sprague-Dawley, rat, in vivo
CYP2D6 = CYP2D6 (Homo sapiens, UniProt P10635); test: HLM-LC-MS CYP450 inhibition assay, CYP2D6
Sequence of CYP2D6 (P10635 whole entry): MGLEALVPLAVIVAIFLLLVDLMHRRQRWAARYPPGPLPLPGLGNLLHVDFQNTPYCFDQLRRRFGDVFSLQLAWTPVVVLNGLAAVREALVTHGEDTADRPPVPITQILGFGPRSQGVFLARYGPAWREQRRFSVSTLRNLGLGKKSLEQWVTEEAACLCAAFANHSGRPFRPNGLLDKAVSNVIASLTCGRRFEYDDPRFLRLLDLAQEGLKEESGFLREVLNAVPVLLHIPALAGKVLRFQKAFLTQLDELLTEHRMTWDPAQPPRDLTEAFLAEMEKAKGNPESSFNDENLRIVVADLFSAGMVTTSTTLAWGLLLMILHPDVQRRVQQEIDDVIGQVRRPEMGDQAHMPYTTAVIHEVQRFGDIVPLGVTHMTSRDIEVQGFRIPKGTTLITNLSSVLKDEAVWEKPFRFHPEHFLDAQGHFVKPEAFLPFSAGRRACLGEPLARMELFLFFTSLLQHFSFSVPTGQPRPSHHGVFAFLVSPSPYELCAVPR
Description: as §4, §5

COc1ccc(-c2cc(C(O)C3CCCCN3)c3ccccc3n2)cc1 (stereo not drawn) [NSC23925b, (2-(4-methoxyphenyl)-4-quinolinyl)(2-piperidinyl)methanol]
CYP inhibitor class (CYP1A2): weak (IC50 values of >10 μM)
IC50 (CYP1A2; substrate phenacetin 30 μM, O-deethylation, read-out: Compound IC50): > 10 µM
CYP inhibitor class (CYP2C8): weak (IC50 values of >10 μM)
IC50 (CYP2C8; substrate paclitaxel 10 μM, 6α-hydroxylation, read-out: Compound IC50): > 10 µM
CYP inhibitor class (CYP2C9): weak (IC50 values of >10 μM)
IC50 (CYP2C9; substrate diclofenac 10 μM, 4-hydroxylation, read-out: Compound IC50): > 10 µM
CYP inhibitor class (CYP2C19): weak (IC50 values of >10 μM)
IC50 (CYP2C19; substrate S-mephenytoin 35 μM, 4-hydroxylation, read-out: Compound IC50): > 10 µM
CYP inhibitor class (CYP3A4): weak (IC50 values of >10 μM)
IC50 (CYP3A4; substrate midazolam 5 μM, 1-hydroxylation, read-out: Compound IC50): > 10 µM
IC50 (CYP3A4; substrate not specified, read-out: IC50): > 10 µM
IC50 (CYP3A4; substrate testosterone 80 μM, 6ß-hydroxylation, read-out: Compound IC50): > 10 µM
MTD ([1]; BALB/c, ip, male mice, I.P., all five tolerated, read-out: tolerated dosage (MTD study)): 68.8 mg/kg
MTD ([1]; both sexes, BALB/c (mice), Sprague-Dawley (rats), intraperitoneal, intravenous, rodents (mice and rats), I.P./I.V., read-out: tolerated dosage according to the MTD results): 24.7 to 93.8 mg/kg
MTD ([1]; both sexes, BALB/c, iv, female and male mice, I.V., health conditions not significantly influenced, read-out: tolerated dosage (MTD study)): 24.7 mg/kg
Number of Death (BALB/c mice; I.P., 68.80 mg/kg, male): 0
Number of Death (BALB/c mice; I.P., 93.75 mg/kg, female): 2
Number of Death (BALB/c mice; I.V., 24.70 mg/kg, female): 0
Number of Death (BALB/c mice; I.V., 24.70 mg/kg, male): 0
AUMC0-inf ([2]; ip, 5 mg/kg): 38450 ± 36415 h·h·ng·mL^−1
AUMC0-t ([2]; ip, 5 mg/kg): 13328 ± 5611 h·h·ng·mL^−1
F ([2]; ip, 5 mg/kg): 110.6 ± 47.4%
AUMC0-inf ([2]; iv, 2.5 mg/kg): 10502 ± 642 h·h·ng·mL^−1
AUMC0-t ([2]; iv, 2.5 mg/kg): 5504 ± 317 h·h·ng·mL^−1
MRTIV ([2]; iv, 2.5 mg/kg): 11.7 ± 0.512 h
IC50 (CYP2D6; Compound IC50, HLM, substrate bufuralol 10 μM): 1.41 µM
CYP inhibitor class (CYP2D6; HLM, bufuralol): moderate (1–10 μM)
